Read-outs that look alike come from different tables or passages of the source.
Assays:
[1] = tested on: nuOXPHOS transcripts; assay type: cell-based, mouse
[2] = tested on: cellular dehydrogenase activity
[3] = tested on: reactive oxygen species; assay type: cell-based, mouse
[4] = tested on: mtOXPHOS transcripts; assay type: cell-based, mouse
[5] = tested on: cytochrome c; assay type: cell-based, mouse
[6] = tested on: C2C12 myotubes
[7] = tested on: mitochondrial membrane potential; assay type: cell-based, mouse
[8] = tested on: OXPHOS gene expression; assay type: cell-based, mouse
[9] = composite Z-score vs DMSO, Conc 20 μM
[10] = 20 μM, composite Z-score vs DMSO
[11] = composite Z-score vs DMSO wells, Conc 20 μM
[12] = composite Z-score vs mock-treated (DMSO) wells, Conc 20 μM
[13] = normalized composite Z-score vs mock-treated (DMSO) wells, Conc 20 μM

C[C@@H]1O[C@@H](O[C@H]2C[C@@H](O)[C@]3(CO)[C@H]4[C@H](O)C[C@]5(C)[C@@H](C6=CC(=O)OC6)CC[C@]5(O)[C@@H]4CC[C@]3(O)C2)[C@H](O)[C@H](O)[C@H]1O [ouabain]
nucOX [1, 9]: −0.986
MTT [2, 9]: −2.101
ROS [3, 9]: 0.466
mitoOX [4, 9]: −1.547
cyt c [5, 9]: 0.262
Viability [6, 9]: −0.631
ΔΨm [7, 9]: −1.093
GE-HTS [8, 9]: −1.278

Cc1onc(-c2ccccc2)c1C(=O)N[C@@H]1C(=O)N2[C@@H]1SC(C)(C)[C@@H]2C(=O)[O-].[Na+] [oxacillin sodium]
nucOX [1, 9]: −0.629
MTT [2, 9]: −1.064
ROS [3, 9]: 0.572
mitoOX [4, 9]: −0.881
cyt c [5, 9]: −0.361
Viability [6, 9]: −1.101
ΔΨm [7, 9]: −0.432
GE-HTS [8, 9]: −0.790

CN(C(=O)CN(CCO)CC(=O)N(C)C(C)(C)Cc1ccccc1)C(C)(C)Cc1ccccc1 [oxethazaine]
nucOX [1]: 0.335
nucOX [1, 10]: −0.812
MTT [2]: −1.374
MTT [2, 10]: −1.451
ROS [3]: 1.092
ROS [3, 10]: −0.055
mitoOX [4]: 0.609
mitoOX [4, 10]: −0.486
cyt c [5]: −0.550
cyt c [5, 10]: −0.278
Viability [6]: −0.497
Viability [6, 10]: −0.294
ΔΨm [7]: −0.742
ΔΨm [7, 10]: 0.173
GE-HTS [8]: 0.473
GE-HTS [8, 10]: −0.739

CCn1cc(C(=O)O)c(=O)c2cc3c(cc21)OCO3 [oxolinic acid]
nucOX [1, 11]: 0.211
MTT [2, 11]: −1.598
ROS [3, 11]: 0.681
mitoOX [4, 11]: 0.171
cyt c [5]: 0.227
cyt c [5, 11]: 0.083
Viability [6, 11]: −0.913
ΔΨm [7, 11]: −0.640
GE-HTS [8, 11]: 0.217

COC[C@]12CN(C=O)[C@@H]3[C@@H]4[C@H](OC)[C@H]1[C@@]3([C@@H](OC)C[C@H]2O)[C@@H]1C[C@@]2(O)[C@H](OC(=O)c3ccccc3)[C@@H]1[C@]4(OC(C)=O)[C@@H](O)[C@@H]2OC [oxonitine]
nucOX [1, 12]: −0.938
MTT [2, 12]: −1.730
ROS [3, 12]: −0.167
mitoOX [4, 12]: 0.147
cyt c [5, 12]: 0.394
Viability [6, 12]: −1.338
ΔΨm [7, 12]: −1.019
GE-HTS [8, 12]: −0.636

Oc1cccc2cccnc12 [oxyquinoline]
nucOX [1]: 0.526
MTT [2]: −0.815
ROS [3]: 0.684
mitoOX [4]: 0.435
cyt c [5]: −0.121
Viability [6]: −1.140
ΔΨm [7]: −0.867
GE-HTS [8]: 0.534

NNC(=O)c1ccncc1.Nc1ccc(C(=O)O)c(O)c1 [pasiniazid]
nucOX [1, 9]: −0.022
MTT [2, 9]: −0.807
ROS [3, 9]: 0.502
mitoOX [4, 9]: −0.164
cyt c [5, 9]: 0.590
Viability [6, 9]: −0.883
ΔΨm [7, 9]: −0.809
GE-HTS [8, 9]: −0.059

COc1ccc(-c2cc(=O)c3c(O)c(OC)c(O[C@@H]4O[C@H](CO[C@@H]5O[C@@H](C)[C@H](O)[C@@H](O)[C@H]5O)[C@@H](O)[C@H](O)[C@H]4O)cc3o2)cc1 [pectolinarin]
nucOX [1, 13]: −1.292
MTT [2, 13]: −0.475
ROS [3, 13]: 1.058
mitoOX [4, 13]: −1.349
cyt c [5, 13]: −0.739
Viability [6, 13]: −0.100
ΔΨm [7, 13]: −0.280
GE-HTS [8, 13]: −1.381

CC(=O)C[C@H]1CCCCN1 [pelletierine]
nucOX [1, 13]: 0.077
MTT [2, 13]: −0.341
ROS [3, 13]: −0.071
mitoOX [4, 13]: −0.077
cyt c [5, 13]: 0.349
Viability [6, 13]: −0.418
ΔΨm [7, 13]: −0.120
GE-HTS [8, 13]: 0.036

CN1C(C)(C)CCCC1(C)C [pempidine]
nucOX [1]: −0.425
nucOX [1, 9]: −1.035
MTT [2]: −2.128
MTT [2, 9]: −1.419
ROS [3]: 1.119
ROS [3, 9]: 0.861
mitoOX [4]: −0.998
mitoOX [4, 9]: −0.378
cyt c [5]: 0.163
cyt c [5, 9]: 0.146
Viability [6]: −1.023
Viability [6, 9]: −0.822
ΔΨm [7]: −0.967
ΔΨm [7, 9]: −0.376
GE-HTS [8]: −0.656
GE-HTS [8, 9]: −0.874

CC1(C)S[C@@H]2[C@H](NC(=O)COc3ccccc3)C(=O)N2[C@H]1C(=O)O [penicillin V]
nucOX [1, 10]: −0.844
MTT [2, 10]: −1.319
ROS [3, 10]: 0.748
mitoOX [4, 10]: −0.654
cyt c [5, 10]: 0.258
Viability [6, 10]: 0.062
ΔΨm [7, 10]: −0.564
GE-HTS [8, 10]: −0.849

Reference: patent US20090143279A1 (priority 2007, published 2009)
